Measured values reported in patent publication US9084758B2, “Antiviral compositions comprising ethanol extract of Tetracera scandens and use thereof” (The Catholic University of Korea Industry-Academic …, priority 2012, dated 2015).

Key:
[1] = tested on: human immunodeficiency virus (HIV); test: Antiviral activity in HIV-infected (Nef substituted with EGFP) MT-4 cells: GFP fluorescence, HIV-1 p24 Antigen Capture Assay; type: cell-based; settings: 1 nM, 3 days
Procedure: Thereafter, the cultured cells were centrifuged at 6,000 rpm for 3 minutes to obtain a cell pallet. Then, fluorescence intensity of a green fluorescence protein (GFP) secreted from the obtained cells was measured, a level of viral infection was confirmed using an HIV-1 p24 Antigen Capture Assay kit (Advanced BioScience Laboratories), and cell viability was determined using an MTT assay. 0.5% DMSO and 1 nM 3′-azido-3′-deoxy-thyminine (AZT) were used as the negative and positive controls, respectively.

[2] = target: HIV reverse transcriptase (Human immunodeficiency virus type 1 group M subtype B, UniProt P04585); test: Inhibition of reverse transcriptase activity, Enzchek Reverse Transcriptase assay kit; type: biochemical; settings: positive controls, FIG. 3

Row | Structure (SMILES) | antiviral activity [1] [%] | inhibition of reverse transcriptase activities (in words) [2]
1 | Cc1cn([C@H]2C[C@H](N=[N+]=[N-])[C@@H](CO)O2)c(=O)[nH]c1=O [AZT, 3′-azido-3′-deoxy-thyminine] | 49.8 | not inhibited
2 | Cc1cn([C@H]2C[C@H](N=[N+]=[N-])[C@@H](CO[P@](=O)(O)O[P@](=O)(O)OP(=O)(O)O)O2)c(=O)[nH]c1=O [AZTTP] | – | increasingly expressed according to a concentration
3 | Cc1cc(C#N)cc(C)c1Oc1nc(Nc2ccc(C#N)cc2)nc(N)c1Br [Etravirine] | – | increasingly expressed according to a concentration
